Consider two compounds from BindingDB's records for doi:10.1016/j.chembiol.2012.04.012 (Albert Einstein College of Medicine, 2012).

The target of the assay is T1, Hypoxanthine-guanine-xanthine phosphoribosyltransferase (Plasmodium falciparum (isolate FCR-3 / Gambia), UniProt P20035).
T1 sequence (P20035 whole entry): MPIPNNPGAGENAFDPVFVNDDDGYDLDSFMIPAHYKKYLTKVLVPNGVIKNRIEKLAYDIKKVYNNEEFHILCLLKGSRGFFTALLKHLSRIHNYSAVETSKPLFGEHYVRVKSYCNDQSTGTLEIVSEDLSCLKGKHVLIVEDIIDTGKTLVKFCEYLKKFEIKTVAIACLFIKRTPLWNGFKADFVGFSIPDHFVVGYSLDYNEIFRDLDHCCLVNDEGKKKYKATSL
Description: Inhbition Assay. The note with it: pH 7.6; 37 °C. The protocol: PfHGXPRT activity was measured using spectrophotometric assay observing the conversion of xanthine and 5-phospho-alpha-D-ribose-1-pyrophosphate to xanthosine-5'-monophosphate and inorganic pyrophosphate (PPi) at 247nm or the conversion of guanine and PRPP to guanosine-5'-monophosphate and PPi on a Varian Cary 100 spectrophotometer.

By Ki is commonly meant a measure of affinity in units of concentration, obtained from inhibition or displacement. `O=c1[nH]cnc2c(NCCCP(=O)(O)O)c[nH]c12` [HGXPRT Inhibitor, 2] gave a Ki of 10.6 nM. Regarding `O=c1[nH]cnc2c(N[C@H](CO)CCP(=O)(O)O)c[nH]c12` [HGXPRT Inhibitor, 3], the affinity corresponds to a Ki of 0.65 nM.
